Consider 4 molecules from publication PMC8550792, “Evolution of kinase polypharmacology across HSP90 drug discovery” (Cell Chemical Biology, 2021).

What all share (assay): biochemical
Format in all cases: biochemical

The target in experiment [1] is T1, 382 unique human kinases (Homo sapiens, UniProt Q6XUX3).
T1 construct: purchased Reaction Biology (HotSpot contract assay)
T1 sequence (Q6XUX3 1-929): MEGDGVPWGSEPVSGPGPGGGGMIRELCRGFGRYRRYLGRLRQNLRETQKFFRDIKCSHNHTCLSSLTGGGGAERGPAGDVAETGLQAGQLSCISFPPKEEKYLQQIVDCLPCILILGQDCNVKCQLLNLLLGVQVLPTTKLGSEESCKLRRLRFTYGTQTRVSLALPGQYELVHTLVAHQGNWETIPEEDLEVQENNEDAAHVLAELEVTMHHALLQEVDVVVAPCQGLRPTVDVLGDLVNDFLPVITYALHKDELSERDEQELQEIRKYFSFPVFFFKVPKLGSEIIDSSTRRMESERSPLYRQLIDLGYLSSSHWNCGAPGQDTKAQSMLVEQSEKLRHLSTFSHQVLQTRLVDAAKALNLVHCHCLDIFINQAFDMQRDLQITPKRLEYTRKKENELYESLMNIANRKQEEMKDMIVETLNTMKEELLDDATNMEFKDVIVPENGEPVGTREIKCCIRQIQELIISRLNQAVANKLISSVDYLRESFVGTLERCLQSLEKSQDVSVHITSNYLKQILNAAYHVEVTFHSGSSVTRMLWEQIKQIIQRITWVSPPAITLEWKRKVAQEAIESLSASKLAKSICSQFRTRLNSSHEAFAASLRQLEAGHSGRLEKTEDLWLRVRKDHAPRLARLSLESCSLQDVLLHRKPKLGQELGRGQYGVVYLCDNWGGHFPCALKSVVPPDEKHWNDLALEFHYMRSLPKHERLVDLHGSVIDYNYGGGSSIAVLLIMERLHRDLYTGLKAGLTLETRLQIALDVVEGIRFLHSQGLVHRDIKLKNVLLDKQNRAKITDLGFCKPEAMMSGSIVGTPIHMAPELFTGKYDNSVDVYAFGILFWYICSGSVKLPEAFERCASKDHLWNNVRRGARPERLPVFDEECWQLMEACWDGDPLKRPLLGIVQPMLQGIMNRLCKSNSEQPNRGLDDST
The conditions noted are these: RIPK5, 10 uM; for remaining activity at 10 µM: read-out: % Enzyme Activity (relative to DMSO controls).

Experiment [2] deals with T2, 382 unique human kinases (Homo sapiens, UniProt Q8TDC3).
T2 construct: purchased Reaction Biology (HotSpot contract assay)
T2 sequence (Q8TDC3 1-778): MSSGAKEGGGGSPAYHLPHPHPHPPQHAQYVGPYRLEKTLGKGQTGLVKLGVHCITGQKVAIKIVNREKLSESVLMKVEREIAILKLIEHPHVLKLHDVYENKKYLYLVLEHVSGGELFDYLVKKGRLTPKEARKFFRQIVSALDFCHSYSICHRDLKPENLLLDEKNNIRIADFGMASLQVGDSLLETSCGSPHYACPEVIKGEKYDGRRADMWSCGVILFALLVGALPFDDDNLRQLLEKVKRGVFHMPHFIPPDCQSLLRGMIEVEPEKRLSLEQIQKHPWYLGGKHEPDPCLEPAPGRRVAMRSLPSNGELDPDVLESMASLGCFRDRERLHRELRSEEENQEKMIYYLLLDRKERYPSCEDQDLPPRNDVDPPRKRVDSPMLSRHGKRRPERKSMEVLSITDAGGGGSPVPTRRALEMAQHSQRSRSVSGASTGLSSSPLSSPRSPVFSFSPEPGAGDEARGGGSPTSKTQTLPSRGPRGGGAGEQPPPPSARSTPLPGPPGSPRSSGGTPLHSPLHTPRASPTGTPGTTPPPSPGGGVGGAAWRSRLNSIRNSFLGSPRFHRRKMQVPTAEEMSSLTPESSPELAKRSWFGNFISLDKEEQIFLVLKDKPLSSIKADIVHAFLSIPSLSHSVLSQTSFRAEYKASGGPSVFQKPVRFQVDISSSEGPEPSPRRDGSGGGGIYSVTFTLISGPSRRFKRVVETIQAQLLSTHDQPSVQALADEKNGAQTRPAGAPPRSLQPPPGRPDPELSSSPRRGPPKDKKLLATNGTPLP
The conditions noted are these: kinase BRSK1, compound 10 uM; for remaining activity at 10 µM: read-out: % Enzyme Activity (relative to DMSO controls).

The target of experiment [3] is T3, 382 unique human kinases (Homo sapiens, UniProt Q9H2K8).
T3 construct: purchased Reaction Biology (HotSpot contract assay)
T3 sequence (Q9H2K8 1-898): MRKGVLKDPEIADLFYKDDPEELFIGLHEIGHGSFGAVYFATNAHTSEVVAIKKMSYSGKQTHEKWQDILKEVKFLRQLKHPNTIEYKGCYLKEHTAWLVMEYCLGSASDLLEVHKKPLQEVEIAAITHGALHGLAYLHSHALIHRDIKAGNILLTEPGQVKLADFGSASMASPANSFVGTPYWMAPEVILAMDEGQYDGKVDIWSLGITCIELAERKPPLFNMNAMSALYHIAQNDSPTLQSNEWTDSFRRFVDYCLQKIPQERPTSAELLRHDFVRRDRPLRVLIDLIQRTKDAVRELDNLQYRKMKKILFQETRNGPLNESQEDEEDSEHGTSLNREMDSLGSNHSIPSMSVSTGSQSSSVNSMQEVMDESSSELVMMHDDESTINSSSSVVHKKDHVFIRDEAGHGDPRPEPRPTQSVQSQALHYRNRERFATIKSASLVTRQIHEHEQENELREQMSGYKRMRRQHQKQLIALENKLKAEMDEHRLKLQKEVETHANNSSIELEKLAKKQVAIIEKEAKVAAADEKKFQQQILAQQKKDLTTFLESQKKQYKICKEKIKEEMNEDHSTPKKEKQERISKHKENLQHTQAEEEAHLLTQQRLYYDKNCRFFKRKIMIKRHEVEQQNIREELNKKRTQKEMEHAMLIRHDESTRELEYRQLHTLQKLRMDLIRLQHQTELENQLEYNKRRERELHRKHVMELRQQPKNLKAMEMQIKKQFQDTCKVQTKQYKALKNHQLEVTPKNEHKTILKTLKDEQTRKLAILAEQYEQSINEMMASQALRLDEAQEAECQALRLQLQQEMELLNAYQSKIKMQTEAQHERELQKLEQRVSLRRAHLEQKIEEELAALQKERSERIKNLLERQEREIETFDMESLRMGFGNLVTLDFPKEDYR
Conditions: TAOK3/JIK, 10 uM; for remaining activity at 10 µM: read-out: % Enzyme Activity (relative to DMSO controls).

`CC(C)c1cc(-c2n[nH]c(=O)n2-c2ccc3c(ccn3C)c2)c(O)cc1O` [Ganetespib (STA9090)]: the remaining activity at 10 µM on 382 unique human kinases [1] turned out to be 95.4%; on 382 unique human kinases [2], 81.4%.

For the molecule `CC(C)c1cc(-c2n[nH]c(=O)n2-c2ccc3c(ccn3C)c2)c(O)cc1O` [Ganetespib], the remaining activity at 10 µM on 382 unique human kinases [3] amounted to 126%.

As for `CCNC(=O)c1noc(-c2cc(C(C)C)c(O)cc2O)c1-c1ccc(CN2CCOCC2)cc1` [Luminespib (AUY-922)], on 382 unique human kinases [1], the “% Enzyme Activity (relative to DMSO controls)” value amounted to 77.60% and the remaining activity at 10 µM is 79.8%. For the same molecule, at 382 unique human kinases [2], the “% Enzyme Activity (relative to DMSO controls)” value was found to be 99.19% and the remaining activity at 10 µM was 100%.

`CCNC(=O)c1noc(-c2cc(C(C)C)c(O)cc2O)c1-c1ccc(CN2CCOCC2)cc1` [Luminespib]: at 382 unique human kinases [3], the “% Enzyme Activity (relative to DMSO controls)” value is reported as 98.33% and the remaining activity at 10 µM was 100%.
